Assay results taken from US10844077B2, “Thiazolyl-containing compounds for treating proliferative diseases” (Dana-Farber Cancer Institute, Inc., priority 2014, dated 2020).
Several values for one entry are separate records, joined by “and”; a condition that tells them apart may be missing. Identical values can stand only once.

Key:
Test in all cases: KINATIV assay
Assay type in all cases: cell-based
MARK3, MARK4 = settings: 1 μM, 90 minutes, BCWM.1 cells
Description: (§1) The cells were harvested and lysed. The lysates were directly labeled with an ATP-biotin probe. Bound kinases were identified and quantitated by ACTIVX as described in Patricelli et al., Biochemistry, 2007, 46(2): 350-358. The compounds were tested in duplicates against duplicate or quadruplicate control samples.

CDK6 = CDK6 (Homo sapiens (Human), UniProt Q00534); settings: 1 μM, 90 minutes, BCWM.1 cells
CDK6, sequence (Q00534 whole entry): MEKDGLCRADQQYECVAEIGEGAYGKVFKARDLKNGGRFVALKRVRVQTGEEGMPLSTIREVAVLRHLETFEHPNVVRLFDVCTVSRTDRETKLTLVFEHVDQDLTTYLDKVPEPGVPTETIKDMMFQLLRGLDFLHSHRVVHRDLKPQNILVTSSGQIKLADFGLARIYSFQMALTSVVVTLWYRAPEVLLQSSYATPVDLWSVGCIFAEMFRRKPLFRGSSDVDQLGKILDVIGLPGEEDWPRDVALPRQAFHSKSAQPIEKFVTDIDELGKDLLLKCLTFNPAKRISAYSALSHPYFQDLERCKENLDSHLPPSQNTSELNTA
Description: as §1

AurB = AurB (Homo sapiens (Human), UniProt Q96GD4); settings: 1 μM, 90 minutes, BCWM.1 cells
Description: as §1

STLK6 = STLK6 (Homo sapiens (Human), UniProt Q9C0K7); settings: 1 μM, 90 minutes, BCWM.1 cells
Description: as §1

p70S6K = p70S6K (Homo sapiens (Human), UniProt P23443); settings: 1 μM, 90 minutes, BCWM.1 cells
Description: as §1

MAP2K1 = MAP2K1 (Homo sapiens (Human), UniProt Q02750); settings: 1 μM, 90 minutes, BCWM.1 cells
Description: as §1

NLK = NLK (Homo sapiens (Human), UniProt Q9UBE8); settings: 1 μM, 90 minutes, BCWM.1 cells
Description: as §1

p38b = p38b (Homo sapiens (Human), UniProt Q15759); settings: 1 μM, 90 minutes, BCWM.1 cells
Description: as §1

CDK4 = CDK4 (Homo sapiens (Human), UniProt P11802); settings: 1 μM, 90 minutes, BCWM.1 cells
CDK4, sequence (P11802 2-303): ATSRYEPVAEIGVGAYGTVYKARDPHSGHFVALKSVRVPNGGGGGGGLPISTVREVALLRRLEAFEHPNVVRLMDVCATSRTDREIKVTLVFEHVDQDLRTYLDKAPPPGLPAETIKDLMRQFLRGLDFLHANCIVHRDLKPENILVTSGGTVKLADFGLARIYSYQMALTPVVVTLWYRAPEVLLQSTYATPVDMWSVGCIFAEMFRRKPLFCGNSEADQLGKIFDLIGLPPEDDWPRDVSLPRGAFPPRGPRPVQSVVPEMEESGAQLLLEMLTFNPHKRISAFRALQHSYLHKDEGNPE
Description: as §1

ZC2/TNIK = ZC2/TNIK (Homo sapiens (Human), UniProt Q9UKE5); settings: 1 μM, 90 minutes, BCWM.1 cells
Description: as §1

KHS1 = KHS1 (Homo sapiens (Human), UniProt Q9Y4K4); settings: 1 μM, 90 minutes, BCWM.1 cells
Description: as §1

RSK2 domain2 = RSK2 domain2 (Homo sapiens (Human), UniProt P51812); settings: 1 μM, 90 minutes, BCWM.1 cells
Description: as §1

[1] = test system: CaMK2a, CaMK2b, CaMK2d, CaMK2g; settings: 1 μM, 90 minutes, BCWM.1 cells
Description: as §1

IKKe = IKKe (Homo sapiens (Human), UniProt Q14164); settings: 1 μM, 90 minutes, BCWM.1 cells
Description: as §1

LRRK2 = LRRK2 (Homo sapiens (Human), UniProt Q5S007); settings: 1 μM, 90 minutes, BCWM.1 cells
LRRK2, sequence (Q5S007 whole entry): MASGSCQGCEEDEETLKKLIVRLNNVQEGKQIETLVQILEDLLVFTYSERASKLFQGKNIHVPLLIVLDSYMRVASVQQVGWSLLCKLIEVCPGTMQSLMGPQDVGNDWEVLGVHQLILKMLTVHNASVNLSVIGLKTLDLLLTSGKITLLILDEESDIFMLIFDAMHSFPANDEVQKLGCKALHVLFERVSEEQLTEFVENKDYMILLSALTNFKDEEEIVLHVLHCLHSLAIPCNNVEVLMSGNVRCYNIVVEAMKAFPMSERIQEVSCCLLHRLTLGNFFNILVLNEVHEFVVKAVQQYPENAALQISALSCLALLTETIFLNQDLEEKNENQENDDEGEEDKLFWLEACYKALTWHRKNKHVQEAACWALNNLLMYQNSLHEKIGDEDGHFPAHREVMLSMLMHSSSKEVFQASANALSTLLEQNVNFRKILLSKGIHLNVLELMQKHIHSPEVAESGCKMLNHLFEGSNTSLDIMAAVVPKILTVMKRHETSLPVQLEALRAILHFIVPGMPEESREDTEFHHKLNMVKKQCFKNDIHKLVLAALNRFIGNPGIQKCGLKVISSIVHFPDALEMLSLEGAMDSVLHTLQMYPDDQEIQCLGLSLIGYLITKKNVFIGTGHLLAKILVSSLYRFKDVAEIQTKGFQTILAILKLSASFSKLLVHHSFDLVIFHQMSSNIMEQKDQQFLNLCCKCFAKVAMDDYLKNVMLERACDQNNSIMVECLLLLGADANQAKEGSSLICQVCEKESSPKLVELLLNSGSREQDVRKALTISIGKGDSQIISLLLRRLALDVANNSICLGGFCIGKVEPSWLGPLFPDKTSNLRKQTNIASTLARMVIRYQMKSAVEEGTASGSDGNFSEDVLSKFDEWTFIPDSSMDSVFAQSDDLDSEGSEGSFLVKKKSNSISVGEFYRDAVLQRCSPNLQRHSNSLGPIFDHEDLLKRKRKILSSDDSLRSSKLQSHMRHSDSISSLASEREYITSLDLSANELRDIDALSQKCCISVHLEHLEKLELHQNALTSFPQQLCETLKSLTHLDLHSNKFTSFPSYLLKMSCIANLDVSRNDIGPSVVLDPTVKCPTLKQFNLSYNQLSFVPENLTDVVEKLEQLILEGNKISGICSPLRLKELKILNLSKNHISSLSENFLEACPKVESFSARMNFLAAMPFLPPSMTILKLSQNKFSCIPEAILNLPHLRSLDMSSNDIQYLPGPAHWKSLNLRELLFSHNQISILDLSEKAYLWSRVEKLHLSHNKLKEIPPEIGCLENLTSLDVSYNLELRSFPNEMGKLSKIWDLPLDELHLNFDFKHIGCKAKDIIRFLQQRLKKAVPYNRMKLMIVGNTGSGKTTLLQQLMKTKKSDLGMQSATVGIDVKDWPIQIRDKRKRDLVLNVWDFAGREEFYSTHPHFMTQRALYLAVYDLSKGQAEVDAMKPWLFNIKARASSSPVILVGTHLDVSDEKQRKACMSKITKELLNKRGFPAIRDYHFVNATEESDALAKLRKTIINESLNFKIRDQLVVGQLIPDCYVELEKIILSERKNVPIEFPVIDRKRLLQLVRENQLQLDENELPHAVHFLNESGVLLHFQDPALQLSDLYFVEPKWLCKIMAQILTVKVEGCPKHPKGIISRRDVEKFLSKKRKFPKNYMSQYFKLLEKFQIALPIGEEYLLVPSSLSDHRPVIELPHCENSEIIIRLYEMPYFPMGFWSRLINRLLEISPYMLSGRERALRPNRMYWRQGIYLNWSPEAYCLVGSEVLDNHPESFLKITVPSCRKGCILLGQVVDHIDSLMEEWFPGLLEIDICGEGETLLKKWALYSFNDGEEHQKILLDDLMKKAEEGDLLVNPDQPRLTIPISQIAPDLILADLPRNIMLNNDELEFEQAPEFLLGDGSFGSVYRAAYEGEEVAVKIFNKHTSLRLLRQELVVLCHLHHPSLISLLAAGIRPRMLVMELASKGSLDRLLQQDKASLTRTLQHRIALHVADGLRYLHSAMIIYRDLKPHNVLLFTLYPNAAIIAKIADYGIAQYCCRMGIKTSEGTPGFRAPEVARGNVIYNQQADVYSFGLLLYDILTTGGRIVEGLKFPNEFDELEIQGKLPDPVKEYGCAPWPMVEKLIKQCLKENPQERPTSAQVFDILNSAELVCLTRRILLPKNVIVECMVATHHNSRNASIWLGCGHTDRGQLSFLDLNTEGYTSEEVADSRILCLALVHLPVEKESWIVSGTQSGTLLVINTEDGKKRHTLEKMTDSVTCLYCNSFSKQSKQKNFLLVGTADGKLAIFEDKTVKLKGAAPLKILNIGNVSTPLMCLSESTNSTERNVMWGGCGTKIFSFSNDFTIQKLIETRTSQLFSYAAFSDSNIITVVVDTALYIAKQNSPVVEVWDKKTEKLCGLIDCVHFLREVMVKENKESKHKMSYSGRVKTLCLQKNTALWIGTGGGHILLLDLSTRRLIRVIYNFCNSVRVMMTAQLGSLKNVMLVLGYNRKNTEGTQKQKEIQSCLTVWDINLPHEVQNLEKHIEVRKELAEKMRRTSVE
Description: as §1

IRAK1 = IRAK1 (Homo sapiens (Human), UniProt P51617); settings: 1 μM, 90 minutes, BCWM.1 cells
Description: as §1

TAK1 = TAK1 (Homo sapiens (Human), UniProt O43318); settings: 1 μM, 90 minutes, BCWM.1 cells
Description: as §1

CSK = CSK (Homo sapiens (Human), UniProt P41240); settings: 1 μM, 90 minutes, BCWM.1 cells
CSK, sequence (P41240 whole entry): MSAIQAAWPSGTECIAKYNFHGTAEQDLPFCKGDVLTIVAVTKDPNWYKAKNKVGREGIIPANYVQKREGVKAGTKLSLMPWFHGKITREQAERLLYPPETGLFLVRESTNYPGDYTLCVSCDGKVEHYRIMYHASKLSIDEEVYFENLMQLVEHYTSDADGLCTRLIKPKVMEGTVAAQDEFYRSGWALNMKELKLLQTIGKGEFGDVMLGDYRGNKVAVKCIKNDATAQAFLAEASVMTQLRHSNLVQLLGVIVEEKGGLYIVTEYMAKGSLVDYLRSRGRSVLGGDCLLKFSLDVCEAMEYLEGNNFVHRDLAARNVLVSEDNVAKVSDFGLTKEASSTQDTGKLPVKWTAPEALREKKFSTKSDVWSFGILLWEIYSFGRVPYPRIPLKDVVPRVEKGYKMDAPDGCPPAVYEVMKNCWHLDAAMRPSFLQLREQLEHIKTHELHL
Description: as §1

GSK3B = GSK3B (Homo sapiens (Human), UniProt P49841)
Description: as §1

NEK1 = NEK1 (Homo sapiens (Human), UniProt Q96PY6); settings: 1 μM, 90 minutes, BCWM.1 cells
Description: as §1

NEK3 = NEK3 (Homo sapiens (Human), UniProt P51956); settings: 1 μM, 90 minutes, BCWM.1 cells
NEK3, sequence (P51956 whole entry): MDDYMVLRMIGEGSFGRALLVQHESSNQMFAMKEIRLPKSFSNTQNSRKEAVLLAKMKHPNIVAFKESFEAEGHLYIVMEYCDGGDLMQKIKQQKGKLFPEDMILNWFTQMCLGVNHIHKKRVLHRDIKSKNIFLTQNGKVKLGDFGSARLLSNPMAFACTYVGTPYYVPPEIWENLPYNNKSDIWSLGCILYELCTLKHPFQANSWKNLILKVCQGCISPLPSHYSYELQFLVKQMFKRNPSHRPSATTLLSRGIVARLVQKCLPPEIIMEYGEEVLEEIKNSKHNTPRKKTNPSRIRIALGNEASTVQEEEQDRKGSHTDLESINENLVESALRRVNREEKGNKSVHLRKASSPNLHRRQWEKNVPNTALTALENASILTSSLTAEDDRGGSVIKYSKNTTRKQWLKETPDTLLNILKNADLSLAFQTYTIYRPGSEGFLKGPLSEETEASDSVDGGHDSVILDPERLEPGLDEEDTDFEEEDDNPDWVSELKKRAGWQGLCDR
Description: as §1

Erk2 = Erk2 (Homo sapiens (Human), UniProt P28482); settings: 1 μM, 90 minutes, BCWM.1 cells
Description: as §1

MYO3A, MYO3B = settings: 1 μM, 90 minutes, BCWM.1 cells
Description: as §1

PIP5K3 = PIP5K3 (Homo sapiens (Human), UniProt Q9Y2I7); settings: 1 μM, 90 minutes, BCWM.1 cells
Description: as §1

IRE1 = IRE1 (Homo sapiens (Human), UniProt O75460); settings: 1 μM, 90 minutes, BCWM.1 cells
Description: as §1

NEK6, NEK7 = settings: 1 μM, 90 minutes, BCWM.1 cells
Description: as §1

CDK9 = CDK9 (Homo sapiens (Human), UniProt P50750); settings: 1 μM, 90 minutes, BCWM.1 cells
Description: as §1

RSKL1 = RSKL1 (Homo sapiens (Human), UniProt Q96S38); settings: 1 μM, 90 minutes, BCWM.1 cells
Description: as §1

PIK3CG = PIK3CG (Homo sapiens (Human), UniProt P48736); settings: 1 μM, 90 minutes, BCWM.1 cells
Description: as §1

BLK = BLK (Homo sapiens (Human), UniProt P51451); settings: 1 μM, 90 minutes, BCWM.1 cells
Description: as §1

MARK4 = MARK4 (Homo sapiens (Human), UniProt Q96L34); settings: 1 μM, 90 minutes, BCWM.1 cells
MARK4, sequence (Q96L34 whole entry): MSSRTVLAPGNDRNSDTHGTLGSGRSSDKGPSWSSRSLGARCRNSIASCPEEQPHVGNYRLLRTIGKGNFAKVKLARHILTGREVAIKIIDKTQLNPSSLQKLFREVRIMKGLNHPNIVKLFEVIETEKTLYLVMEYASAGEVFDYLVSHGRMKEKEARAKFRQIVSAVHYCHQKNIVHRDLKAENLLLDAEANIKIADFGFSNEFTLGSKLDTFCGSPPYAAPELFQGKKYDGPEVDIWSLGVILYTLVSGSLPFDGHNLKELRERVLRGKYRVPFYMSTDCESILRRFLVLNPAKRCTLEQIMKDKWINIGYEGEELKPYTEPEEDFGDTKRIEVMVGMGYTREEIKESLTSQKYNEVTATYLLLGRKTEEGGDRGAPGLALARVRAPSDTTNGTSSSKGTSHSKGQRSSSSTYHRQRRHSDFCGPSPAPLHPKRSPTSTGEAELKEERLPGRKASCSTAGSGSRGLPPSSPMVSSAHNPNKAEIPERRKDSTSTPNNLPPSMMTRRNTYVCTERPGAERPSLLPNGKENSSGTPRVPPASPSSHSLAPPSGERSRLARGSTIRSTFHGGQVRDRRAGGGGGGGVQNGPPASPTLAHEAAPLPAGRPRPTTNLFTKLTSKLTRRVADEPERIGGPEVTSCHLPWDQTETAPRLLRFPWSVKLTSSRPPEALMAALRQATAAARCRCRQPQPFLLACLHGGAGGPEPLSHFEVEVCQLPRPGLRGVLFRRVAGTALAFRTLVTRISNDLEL
Description: as §1

AurA, AurB, AurC = settings: 1 μM, 90 minutes, BCWM.1 cells
Description: as §1

JNK1, JNK2, JNK3 = settings: 1 μM, 90 minutes, BCWM.1 cells
Description: as §1

PIK3CB = PIK3CB (Homo sapiens (Human), UniProt P42338); settings: 1 μM, 90 minutes, BCWM.1 cells
Description: as §1

CLK3 = CLK3 (Homo sapiens (Human), UniProt P49761); settings: 1 μM, 90 minutes, BCWM.1 cells
Description: as §1

RSK1 domain2 = RSK1 domain2 (Homo sapiens (Human), UniProt Q15418); settings: 1 μM, 90 minutes, BCWM.1 cells
Description: as §1

Wnk1, Wnk2, Wnk3 = settings: 1 μM, 90 minutes, BCWM.1 cells
Description: as §1

PCTAIRE1, PCTAIRE3 = settings: 1 μM, 90 minutes, BCWM.1 cells
Description: (§2) The cells were harvested and lysed.

PCTAIRE2, PCTAIRE3 = settings: 1 μM, 90 minutes, BCWM.1 cells
Description: as §2

C=CC(=O)N1CCC(CNc2nccc(Nc3ncc(C(=O)Nc4c(C)cccc4C)s3)n2)C1 (racemic) [Example I-8]
% change of MS signal compared to control sample (MARK3, MARK4): 5.8%
% change of MS signal compared to control sample (CDK6): 4.5%
% change of MS signal compared to control sample (AurB): −14.3%
% change of MS signal compared to control sample (STLK6): −12.9%
% change of MS signal compared to control sample (p70S6K): −36.8%
% change of MS signal compared to control sample (MAP2K1): 1.0%
% change of MS signal compared to control sample (NLK): 6.1%
% change of MS signal compared to control sample (p38b): 12.0%
% change of MS signal compared to control sample (CDK4): 6.1%
% change of MS signal compared to control sample (ZC2/TNIK): 19.0%
% change of MS signal compared to control sample (KHS1): −8.4%
% change of MS signal compared to control sample (RSK2 domain2): −6.8%
% change of MS signal compared to control sample [1]: 10.4%
% change of MS signal compared to control sample (IKKe): −5.9%
% change of MS signal compared to control sample (LRRK2): −12.2%
% change of MS signal compared to control sample (IRAK1): 13.6%
% change of MS signal compared to control sample (TAK1): 9.7%
% change of MS signal compared to control sample (CSK): 88.1% and 86.2%
% change of MS signal compared to control sample (GSK3B): −10.7%
% change of MS signal compared to control sample (NEK1): 12.8%
% change of MS signal compared to control sample (NEK3): 3.2%
% change of MS signal compared to control sample (Erk2): −0.1%
% change of MS signal compared to control sample (MYO3A, MYO3B): 23.1%
% change of MS signal compared to control sample (PIP5K3): 4.2%
% change of MS signal compared to control sample (IRE1): −1.5%
% change of MS signal compared to control sample (NEK6, NEK7): −11.0%
% change of MS signal compared to control sample (CDK9): −5.2%
% change of MS signal compared to control sample (RSKL1): 35.0%
% change of MS signal compared to control sample (PIK3CG): −55.4%
% change of MS signal compared to control sample (BLK): >95%
% change of MS signal compared to control sample (MARK4): −0.4% and 1.6%
% change of MS signal compared to control sample (AurA, AurB, AurC): −2.9%
% change of MS signal compared to control sample (JNK1, JNK2, JNK3): −9.5%
% change of MS signal compared to control sample (PIK3CB): −10.1%
% change of MS signal compared to control sample (CLK3): −14.9%
% change of MS signal compared to control sample (RSK1 domain2): 0.5%
% change of MS signal compared to control sample (Wnk1, Wnk2, Wnk3): 1.7%
% change of MS signal compared to control sample (PCTAIRE1, PCTAIRE3): 19.8%
% change of MS signal compared to control sample (PCTAIRE2, PCTAIRE3): 28.8%
